Results on one molecule are retold here after article PMC3204379 (Journal of molecular biology, 2011).

This test has as its target PtpA (Staphylococcus aureus, UniProt P0C5D2). The test can be described thus: phosphatase activity. The conditions noted are these: artificial substrate; conditions not given. The format is biochemical.

Each structure is given as a SMILES string.

Chain of PtpA (P0C5D2 whole entry): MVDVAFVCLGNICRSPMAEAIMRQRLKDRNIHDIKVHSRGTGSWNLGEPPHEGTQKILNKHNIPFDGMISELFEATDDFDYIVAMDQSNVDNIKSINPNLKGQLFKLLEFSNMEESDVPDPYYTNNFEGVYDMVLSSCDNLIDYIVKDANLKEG

As for `O=[N+]([O-])c1ccc(OP(=O)(O)O)cc1` [para-nitrophenol phosphate], the “phosphatase activity (data not shown)” value is given as “activity of PtpA with the artificial phosphatase substrate para-nitrophenol phosphate”.
